Test results published in paper PMC11962085, “Molecular mechanisms of urate transport by the native human URAT1 and its inhibition by anti-gout drugs” (Cell Discovery, 2025).
Numbering of substitutions follows the chain as printed.

What was measured:
[1] = biological target: T1, hURAT1 F449A (Homo sapiens, UniProt Q96S37, F449A); assay: 14C-urate uptake inhibition assay, hURAT1 F449A mutant in HEK293 cells; type: cell-based
T1 construct: Flag; expressed in transfected cells; host or cells: HEK293
T1 sequence (Q96S37 1-553 F449A): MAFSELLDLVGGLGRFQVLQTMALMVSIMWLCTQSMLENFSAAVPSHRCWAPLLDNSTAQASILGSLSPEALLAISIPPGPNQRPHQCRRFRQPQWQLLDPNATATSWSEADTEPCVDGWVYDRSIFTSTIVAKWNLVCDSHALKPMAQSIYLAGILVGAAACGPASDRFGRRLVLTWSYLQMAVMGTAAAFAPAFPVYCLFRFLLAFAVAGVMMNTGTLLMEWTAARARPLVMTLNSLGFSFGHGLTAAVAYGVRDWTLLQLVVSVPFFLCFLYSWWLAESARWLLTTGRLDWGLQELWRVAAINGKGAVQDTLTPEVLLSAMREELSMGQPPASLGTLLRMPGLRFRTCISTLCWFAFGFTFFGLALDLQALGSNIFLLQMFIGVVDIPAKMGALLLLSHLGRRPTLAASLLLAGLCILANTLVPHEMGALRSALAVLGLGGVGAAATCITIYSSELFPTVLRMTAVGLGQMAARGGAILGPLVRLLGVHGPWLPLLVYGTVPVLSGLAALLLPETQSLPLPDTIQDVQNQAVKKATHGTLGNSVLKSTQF
Procedure: (§1) The cells were seeded at a density of 30,000 cells per well in Isoplate-96 plates (Perkin Elmer).

[2] = biological target: T2, hURAT1 F360A (Homo sapiens, UniProt Q96S37, F360A); assay: 14C-urate uptake inhibition assay, hURAT1 F360A mutant in HEK293 cells; type: cell-based; conditions: for effect of alanine substitution at F360 on inhibition: F360A vs wild-type URAT1, in words; for IC50: F360A hURAT1, HEK293 cells, 14C-urate uptake, n=3-8, read-out: pIC50 (Mean ± SEM) (converted)
T2 construct: Flag; expressed in transfected cells; host or cells: HEK293
T2 sequence (Q96S37 1-553 F360A): T1 sequence (Q96S37 1-553 F449A) with F360A, A449F
Procedure: as §1

[3] = biological target: T3, hURAT1 R477K (Homo sapiens, UniProt Q96S37, R477K); assay: 14C-urate uptake inhibition assay, hURAT1 R477K mutant in HEK293 cells; type: cell-based; conditions: for IC50: R477K hURAT1, HEK293 cells, 14C-urate uptake, n=3-8, read-out: pIC50 (Mean ± SEM) (converted)
T3 construct: Flag; expressed in transfected cells; host or cells: HEK293
T3 sequence (Q96S37 1-553 R477K): T1 sequence (Q96S37 1-553 F449A) with A449F, R477K
Procedure: as §1

[4] = biological target: T4, hURAT1 F364Y-F365Y (Homo sapiens, UniProt Q96S37, F364Y/F365Y); assay: 14C-urate uptake inhibition assay, hURAT1 F364Y-F365Y mutant in HEK293 cells; type: cell-based; conditions: for IC50: F364Y-F365Y hURAT1, HEK293 cells, 14C-urate uptake, n=3-8, N.A., not active, read-out: pIC50 (Mean ± SEM) (converted)
T4 construct: Flag; expressed in transfected cells; host or cells: HEK293
T4 sequence (Q96S37 1-553 F364Y/F365Y): T1 sequence (Q96S37 1-553 F449A) with F364Y, F365Y, A449F
Procedure: as §1

[5] = design: method as in PMID 26378978, PMID 30415602; conditions: high-risk patients; cited from earlier work

IC50 [2] [µM] | IC50 [3] [µM] | IC50 [4] [µM] | SMILES | effect of alanine substitution at F360 on inhibition [2] | other results
– | – | – | CCc1oc2ccccc2c1C(=O)c1cc(Br)c(O)c(Br)c1 [benzbromarone] | significantly diminish the inhibitory effectiveness | effect of alanine substitution at F449 on inhibition ([1]; F449A vs wild-type URAT1, in words): significantly diminish the inhibitory effectiveness; effect of mutation of R477 to lysine on potency ([3]; R477K vs wild-type URAT1, in words): slightly reduced the potency
3.16 | 0.0229 | 0.123 | O=C(c1cc(Cl)c(O)c(Cl)c1)N1CS(=O)(=O)c2ccccc21 [dotinurad] | markedly reduces the effectiveness | –
– | – | – | OC[C@H]1O[C@@H](c2ccc(Cl)c(Cc3ccc(O[C@H]4CCOC4)cc3)c2)[C@H](O)[C@@H](O)[C@@H]1O [empagliflozin] | – | relative risk reduction in cardiovascular death [5]: 38%
– | – | – | O=C(O)CSc1nnc(Br)n1-c1ccc(C2CC2)c2ccccc12 [lesinurad] | – | effect of changing F364 and F365 to tyrosine on inhibition ([4]; F364Y-F365Y vs wild-type URAT1, in words): nearly abolishes the inhibitory effects
0.0562 | 0.513 | 245 | CC(C)(Sc1ccncc1-c1ccc(C#N)c2ccccc12)C(=O)O [verinurad] | – | IC50 ([1]; F449A hURAT1, HEK293 cells, 14C-urate uptake, n=3-8, read-out: pIC50 (Mean ± SEM) (converted)): 0.126 µM
